What was measured:
IMP-1 = IMP-1 (Serratia marcescens, UniProt P52699); assay: biochemical; format: biochemical; conditions: CCF2-FA substrate, 2 hours at 25° C; read-out: IMP-1 IC50
How it was run: (§1)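 Class B activity is measured in the presence of compound by fluorescence with CCF2-FA after a 2-hour incubation at 25° C. IC50 is taken from a 4-parameter fit of semi-logarithmic dose-response data.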

NDM-1 = NDM-1 (Klebsiella pneumoniae, UniProt C7C422); assay: biochemical; format: biochemical; conditions: CCF2-FA substrate, 2 hours at 25° C; read-out: NDM-1 IC50
How it was run: as §1

VIM-1 = VIM-1 (Pseudomonas aeruginosa (strain ATCC 15692 / DSM 22644 / CIP 104116 / JCM 14847 / LMG 12228 / 1C / PRS 101 / PAO1), UniProt A0A0F7KYQ8); assay: biochemical; conditions: CCF2-FA substrate, 2 hours at 25° C
How it was run: as §1

[1] = system: Escherichia coli expressing NDM-1 (CLB30005, CLB30016); format: cell-based; conditions: with imipenem 1 μg/ml; 95% inhibition of bacterial growth
How it was run: (§2)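 Clinical strains grown overnight on blood agar, then diluted 1:100 in 1.1× CAMHB and exposed to test compound with imipenem at 1 μg/ml. Incubation was 22–24 h at 35° C; growth was read by absorbance to find the compound concentration restoring imipenem susceptibility.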

[2] = system: Klebsiella pneumoniae expressing VIM-1 (IHMA599644); format: cell-based; conditions: with imipenem 1 μg/ml; 95% inhibition of bacterial growth
How it was run: as §2

[3] = system: Serratia marcescens expressing IMP-1 (CL5741); format: cell-based; conditions: with imipenem 1 μg/ml; 95% inhibition of bacterial growth
How it was run: as §2

[4] = system: P. aeruginosa expressing IMP-1, efflux+ (MB9798); format: cell-based, Pseudomonas aeruginosa; conditions: for P. aeruginosa expressing IMP-1, efflux+ (MB9798) MITC95: imipenem at 2 μg/mL, in the presence of a class A, C, D serine β-lactamase inhibitor closely related to relebactam; for Efflux ratio: ratio MITC95 PA_9798/MITC95 PA_9799
Excerpt: (§3) The strain background is Pseudomonas aeruginosa PAO1.

[5] = system: P. aeruginosa expressing IMP-1, efflux− (MB9799); assay: Efflux: concentration of MBL inhibitor which restores susceptibility to imipenem; format: cell-based, Pseudomonas aeruginosa; conditions: imipenem at 2 μg/mL, in the presence of a class A, C, D serine β-lactamase inhibitor closely related to relebactam
Excerpt: as §3

NDM-1, sequence (C7C422 whole entry, looked up, species assumed): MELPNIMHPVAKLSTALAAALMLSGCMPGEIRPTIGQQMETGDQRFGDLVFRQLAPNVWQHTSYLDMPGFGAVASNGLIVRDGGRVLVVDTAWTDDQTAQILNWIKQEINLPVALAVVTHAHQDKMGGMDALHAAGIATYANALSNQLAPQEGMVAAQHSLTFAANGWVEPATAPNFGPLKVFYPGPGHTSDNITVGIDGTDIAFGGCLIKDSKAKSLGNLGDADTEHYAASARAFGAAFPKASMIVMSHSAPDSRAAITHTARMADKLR
IMP-1, sequence (P52699 whole entry, looked up, species assumed): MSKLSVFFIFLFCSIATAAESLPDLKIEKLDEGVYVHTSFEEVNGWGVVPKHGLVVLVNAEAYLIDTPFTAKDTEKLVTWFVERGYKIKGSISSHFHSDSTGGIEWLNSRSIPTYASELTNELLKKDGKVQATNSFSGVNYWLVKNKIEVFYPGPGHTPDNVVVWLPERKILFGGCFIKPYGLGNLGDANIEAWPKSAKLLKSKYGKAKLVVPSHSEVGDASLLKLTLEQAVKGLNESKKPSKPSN

SMILES	IC50 (IMP-1) [nM]	IC50 (NDM-1) [nM]	IC50 (VIM-1) [nM]	Escherichia coli expressing NDM-1 (CLB30016) MITC95 [1] [µM]	Klebsiella pneumoniae expressing VIM-1 (IHMA599644) MITC95 [2] [µM]	Serratia marcescens expressing IMP-1 (CL5741) MITC95 [3] [µM]	P. aeruginosa expressing IMP-1, efflux+ (MB9798) MITC95 [4] [µM]	Efflux ratio [4]	P. aeruginosa expressing IMP-1, efflux− (MB9799) MITC95 [5] [µM]
Nc1nc2c(-c3ccc(S(=O)(=O)c4ccccn4)c(S(N)(=O)=O)c3-c3nnn[nH]3)cccc2s1 [Example 233, 3-(2-aminobenzo[d]thiazol-4-yl)-6-(pyridin-2-ylsulfonyl)-2-(1H-tetrazol-5-yl)benzenesulfonamide]	0.203	0.0324	0.113	3.125	12.5	3.125	12.5	8.00	1.563
CSc1ccc(-c2ccc(C3CCNCC3)cc2)c(-c2nnn[nH]2)c1S(N)(=O)=O [Example 234, 4-(Methylthio)-4′-(piperidin-4-yl)-2-(1H-tetrazol-5-yl)-[1,1′-biphenyl]-3-sulfonamide]	4.37	15.7	13.9	3.125	12.5	3.125	50	64.00	0.7813
C[S+]([O-])c1ccc(-c2ccc(C3CCNCC3)cc2)c(-c2nnn[nH]2)c1S(N)(=O)=O (stereo not drawn) [Example 235, 4-(methylsulfinyl)-4′-(piperidin-4-yl)-2-(1H-tetrazol-5-yl)-[1,1′-biphenyl]-3-sulfonamide]	23.6	31.9	8.18	12.5	50	12.5	50	8.00	6.25
CS(=O)(=O)c1ccc(-c2ccc(C3CCNCC3)cc2)c(-c2nnn[nH]2)c1S(N)(=O)=O [Example 236, 4-(methylsulfonyl)-4′-(piperidin-4-yl)-2-(1H-tetrazol-5-yl)-[1,1′-biphenyl]-3-sulfonamide]	0.103	2.12	0.127	3.125	3.125	3.125	6.25	8.00	0.7813
CS(=O)(=O)c1ccc(-c2ccc(N)nc2)c(-c2nn[nH]n2)c1S(N)(=O)=O [Example 237, 3-(6-Aminopyridin-3-yl)-6-(methylsulfonyl)-2-(2H-tetrazol-5-yl)benzenesulfonamide]	0.63	5.81	0.754	0.3906	6.25	1.563	25	15.99	1.563
CS(=O)(=O)c1ccc(-c2cnc3ccccn23)c(-c2nn[nH]n2)c1S(N)(=O)=O [Example 238, 3-(Imidazo[1,2-a]pyridin-3-yl)-6-(methylsulfonyl)-2-(2H-tetrazol-5-yl) benzenesulfonamide]	0.333	0.862	0.201	3.125	6.25	3.125	50	31.99	1.563
